In US12344631B2, “C17 polar-substituted heteroaromatic synthetic triterpenoids and methods of use thereof” (REATA PHARMACEUTICALS, INC., priority 2019, dated 2025):

Key:
RAW 264.7 cells = assay: Nitric oxide suppression assay (IFNγ-induced NO production); type: cell-based, mouse; details: for IC50: Mus musculus, RAW264.7, RAW 264.7 cells, 2 h pretreatment, 20 ng/mL interferon gamma 24 h, nitrite by Griess, read-out: NO IC50 (nM) (Mean ± SD); for NO IC50 Relative to RTA 402 (fold) (Mean ± SD): average of ratios from replicate experiments, benchmark RTA 402
Method in brief: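 Mouse RAW 264.7 macrophages in RPMI 1640 with 0.5% FBS were pretreated with compounds for 2 h at 37° C (0.1% DMSO final), then stimulated with 20 ng/mL IFNγ for 24 h. Nitrite in the supernatant was read at 525 nm against standards and normalized to DMSO/IFNγ wells. IC50 values were fitted with dependence on WST-1 viability.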

[1] = system: AML-12 hepatocyte cell line; assay: Glutathione assay (total glutathione, GSH-Glo); type: cell-based, mouse; details: for EC50: Mus musculus, AML12, AML-12 cells, 24 hours, total glutathione, read-out: GSH EC50 (nM) (Mean ± SD); for GSH EC50 Relative to RTA 402 (fold) (Mean ± SD): benchmark RTA 402
Method in brief: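 Mouse AML-12 hepatocytes were treated with compound (0.03 nM to 1000 nM, 0.1% DMSO) for 24 hours at 37° C., and total glutathione was measured by GSH-Glo luminescence against a glutathione standard curve. EC50 values came from nonlinear regression, with basal glutathione set to 0% and the maximal compound-induced level set to 100%.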

[2] = system: AREc32 reporter cell line (antioxidant response element of rat Gsta2, Nrf2 target gene); assay: AREc32 luciferase reporter activation; type: cell-based, human; details: for AREc32 EC2X Relative to RTA 402 (fold) (Mean ± SD): average of ratios from replicate experiments, benchmark RTA 402; for AREc32 Relative to CC in Same Experiment (Mean ± SD): average of ratios from experiments with direct comparisons; for EC (2-fold): human, Arec32, 19 h, concentration increasing luminescence signal 2-fold above vehicle, nineteen hours, read-out: AREc32 EC2X (nM) (Mean ± SD)
Method in brief: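 MCF-7-derived cells carry luciferase driven by eight copies of the rat Gsta2 ARE. EC2X was extrapolated from a nonlinear fit of fold increase over vehicle.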

CYP3A4 = CYP3A4 (Homo sapiens, UniProt P08684); assay: CYP3A4 (midazolam) inhibition in human liver microsomes; details: for inhibition at 10 min, 1 μM: human, human liver microsomes, probe midazolam (5 μM); for CYP3A4 inhibition compared with historical data for RTA 402 and RTA 408: comparable conditions (FIG. 1); for CYP3A4 inhibition lower than the corresponding unsubstituted compound: vs CC2, CC1 or CC3, 1 μM
CYP3A4, sequence (P08684 whole entry): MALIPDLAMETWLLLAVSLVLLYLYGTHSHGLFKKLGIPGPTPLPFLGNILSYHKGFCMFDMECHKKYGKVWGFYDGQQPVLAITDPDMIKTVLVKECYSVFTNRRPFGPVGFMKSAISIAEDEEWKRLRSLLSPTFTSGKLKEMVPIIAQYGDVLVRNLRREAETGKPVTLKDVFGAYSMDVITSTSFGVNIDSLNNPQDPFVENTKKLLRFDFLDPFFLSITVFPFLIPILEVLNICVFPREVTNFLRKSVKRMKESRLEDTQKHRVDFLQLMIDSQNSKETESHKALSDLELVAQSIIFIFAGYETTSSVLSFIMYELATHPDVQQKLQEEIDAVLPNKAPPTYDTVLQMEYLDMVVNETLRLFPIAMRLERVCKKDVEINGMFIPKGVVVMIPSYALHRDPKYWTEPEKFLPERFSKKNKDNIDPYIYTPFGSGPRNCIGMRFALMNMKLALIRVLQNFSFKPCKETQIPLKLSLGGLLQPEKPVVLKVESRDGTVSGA

Structure (SMILES)	IC50 (RAW 264.7 cells)	NO IC50 Relative to RTA 402 (fold) (Mean ± SD) (RAW 264.7 cells)	EC50 [1]	GSH EC50 Relative to RTA 402 (fold) (Mean ± SD) [1]	AREc32 EC2X Relative to RTA 402 (fold) (Mean ± SD) [2]	AREc32 Relative to CC in Same Experiment (Mean ± SD) ([2]; comparison compound CC2)	EC (2-fold) [2]	inhibition at 10 min, 1 μM (CYP3A4)	AREc32 Relative to CC in Same Experiment (Mean ± SD) ([2]; comparison compound CC3)	CYP3A4 inhibition compared with historical data for RTA 402 and RTA 408 (CYP3A4)	CYP3A4 inhibition lower than the corresponding unsubstituted compound (CYP3A4)	AREc32 Relative to CC in Same Experiment (Mean ± SD) ([2]; comparison compound CC1)
Cc1noc([C@]23CCC(C)(C)C[C@H]2[C@H]2C(=O)C=C4[C@@]5(C)C=C(C#N)C(=O)C(C)(C)[C@@H]5CC[C@@]4(C)[C@]2(C)CC3)n1 [CC2, reference compound]	1.98 nM	0.70 ± 0.18 fold	2 ± 1.24 nM	0.80 ± 0.16 fold	0.74 ± 0.16 fold	1.00	8.59 ± 1.88 nM	45.8%	–	–	–	–
Cc1noc([C@]23CCC(C)(C)C[C@H]2[C@H]2C(=O)C=C4[C@@]5(C)C=C(C#N)C(=O)[C@@H](C)[C@@H]5CC[C@@]4(C)[C@]2(C)CC3)n1 [CC3, reference compound]	1.34 nM	0.40 ± 0.06 fold	1.16 ± 0.53 nM	0.43 ± 0.14 fold	0.66 ± 0.21 fold	–	7.11 ± 1.15 nM	37.7%	1.00	–	–	–
CC1(C)CC[C@]2(c3noc(CF)n3)CC[C@]3(C)[C@H](C(=O)C=C4[C@@]5(C)C=C(C#N)C(=O)C(C)(C)[C@@H]5CC[C@]43C)[C@@H]2C1 [Compound T1]	1.24 nM	0.52 ± 0.12 fold	0.57 ± 0.22 nM	0.35 ± 0.12 fold	0.46 ± 0.13 fold	0.62 ± 0.07	6.2 ± 1.37 nM	29.1%	–	reduced CYP3A4 inhibition	36%	–
CC1(C)CC[C@]2(c3noc(CN)n3)CC[C@]3(C)[C@H](C(=O)C=C4[C@@]5(C)C=C(C#N)C(=O)C(C)(C)[C@@H]5CC[C@]43C)[C@@H]2C1 [Compound T2]	1.15 nM	0.38 ± 0.09 fold	1.21 ± 1.15 nM	0.47 ± 0.38 fold	0.28 ± 0.04 fold	0.43 ± 0.00	3.67 ± 0.28 nM	21.4%	–	reduced CYP3A4 inhibition	53%	–
CC1(C)CC[C@]2(c3nnc(CF)o3)CC[C@]3(C)[C@H](C(=O)C=C4[C@@]5(C)C=C(C#N)C(=O)C(C)(C)[C@@H]5CC[C@]43C)[C@@H]2C1 [Compound T11]	0.98 nM	0.37 ± 0.07 fold	0.54 ± 0.29 nM	0.32 ± 0.13 fold	0.25 ± 0.08 fold	–	3.23 ± 0.77 nM	17.7%	–	reduced CYP3A4 inhibition	15%	0.27 ± 0.03
CC1(C)CC[C@]2(c3nc(CF)no3)CC[C@]3(C)[C@H](C(=O)C=C4[C@@]5(C)C=C(C#N)C(=O)C(C)(C)[C@@H]5CC[C@]43C)[C@@H]2C1 [Compound T12]	1.27 nM	0.52 ± 0.12 fold	0.82 ± 0.4 nM	0.50 ± 0.19 fold	0.53 ± 0.12 fold	0.75 ± 0.05	6.87 ± 1.57 nM	29.7%	–	reduced CYP3A4 inhibition	35%	–
C[C@@H]1C(=O)C(C#N)=C[C@]2(C)C3=CC(=O)[C@@H]4[C@@H]5CC(C)(C)CC[C@]5(c5nc(CF)no5)CC[C@@]4(C)[C@]3(C)CC[C@@H]12 [Compound T34]	0.93 nM	0.28 ± 0.06 fold	0.35 ± 0.06 nM	0.18 ± 0.02 fold	0.36 ± 0.05 fold	–	4.5 ± 0.66 nM	29.4%	0.76 ± 0.14	reduced CYP3A4 inhibition	22%	–
